Test results as given in patent US12102616B2, “Psilocin mucate” (LOBE SCIENCES LTD., priority 2022, dated 2024).
Values joined by “and” are separate entries in the source; they are usually repeats but may differ in a detail not shown here. Equal entries are not always repeated. “Also recorded” adds a separate entry of the source. Where two headings read alike, the source gives them in different places.

Assays:
[1] = Stability studies on psilocin mucate capsule over a 12 month period; format: physicochemical; settings: for Appearance POL-0018, Product / Assay TM-22-0392 (% Label Claim) / Total Impurities / Water Content by cKF TM-22-0012, Mean (2) / Water Content by cKF TM-22-0012, Prep 1 and 2 / Impurities TM-22-0392 (individual impurities): capsules
Method: Additional stability studies were performed on psilocin mutate (also known as psilocin mucic acid salt or conjugate or psilocin galactaric acid salt or conjugate) capsule over a 12 month period.
Appearance was evaluated by viewing of the sample on a watchglass over a black and white background.
Assay conditions for Test/Method TM-022-0392 assessing stability and impurities were as follows: • Mobile phase: MPA: 945 mL water, 5 mL H3PO4, pH to 5.7 with NaOH; MPB: Acetonitrile • Diluent: 80:20 Water:MeOH • Standard: 0.4 mg/mL Psilocin Mucic RS in Diluent • Sample: 0.4 mg/mL Psilocin Mucic API in Diluent • HPLC Conditions are depicted in Table 3.
• System suit: RSD NMT 2.0% (5 injections), Tailing NMT 2.0, Plate count NLT 10000
Calculations were against a bracketing external standard.
Identity of psilocin mucate was verified by ultraviolet (UV) assessment, wherein the UV spectrum of the main peak in the standard matched the UV spectrum of the main peak in the sample and by retention time wherein the retention time ratio was 0.98-1.02.

Swiss Albino Mice = experiment: 28-day oral (gavage) toxicity study with 14-day recovery
healthy subjects = experiment: Mood assessment, MMSE test and adverse events in the phase one study
[2] = Phase one single-dose pharmacokinetic study of capsules containing psilocin mucic acid conjugate (plasma psilocin)
[3] = cited from earlier work; for AUC / Tmax / Cmax: psilocin
[4] = Usona's investigator's brochure; cited from earlier work
[5] = 2, 10 and 20 mg/kg bw/day oral, 28 days
[6] = females G4R vs G1R, considered not related
[7] = males G4R vs G1R, considered not related
[8] = single oral dose equivalent to 2 mg psilocin
[9] = plasma psilocin, 2 mg p.o. PM fasted
[10] = 0.224 mg/kg p.o. PY fasted by Hasler

## CN(C)CCc1c[nH]c2cccc(O)c12.O=C(O)[C@@H](O)[C@H](O)[C@H](O)[C@@H](O)C(=O)O [psilocin mucate]
[1]
  stable for (duration of stability): at least 12 months
[1]; 1 Month
  Appearance POL-0018, Product: Conforms
  Assay TM-22-0392 (% Label Claim): 98.8%
  Total Impurities: 0.05%
  Water Content by cKF TM-22-0012, Mean (2): 0.9 % w/w
  Water Content by cKF TM-22-0012, Prep 1 and 2: 0.9 % w/w and 0.8 % w/w
[1]; 1 Month, impurity at RRT 1.11
  Impurities TM-22-0392 (individual impurities): RRT 1.11/0.05%
[1]; 3 Months
  Appearance POL-0018, Product: Conforms
  Assay TM-22-0392 (% Label Claim): 101.1%
  Total Impurities: <0.05%
  Water Content by cKF TM-22-0012, Mean (2): 1.6 % w/w
  Water Content by cKF TM-22-0012, Prep 1 and 2: 2.0 % w/w and 1.1 % w/w
[1]; 3 Months, all impurities
  Impurities TM-22-0392 (individual impurities): All < 0.05%
[1]; 5 Months
  Appearance POL-0018, Product: Conforms
  Assay TM-22-0392 (% Label Claim): 103.2%
  Total Impurities: <0.05%
  Water Content by cKF TM-22-0012, Mean (2): 1.3 % w/w
  Water Content by cKF TM-22-0012, Prep 1 and 2: 1.2 % w/w and 1.3 % w/w
[1]; 5 Months, all impurities
  Impurities TM-22-0392 (individual impurities): All < 0.05%
[1]; 6 Months
  Appearance POL-0018, Product: Conforms
  Assay TM-22-0392 (% Label Claim): 98.8%
  Total Impurities: <0.05%
  Water Content by cKF TM-22-0012, Mean (2): 1.4 % w/w
  Water Content by cKF TM-22-0012, Prep 1 and 2: 1.4 % w/w
[1]; 6 Months, all impurities
  Impurities TM-22-0392 (individual impurities): All < 0.05%
[1]; 12 Months
  Appearance POL-0018, Product: Conforms
  Assay TM-22-0392 (% Label Claim): 98.4%
  Total Impurities: <0.05%
  Water Content by cKF TM-22-0012, Mean (2): 1.3 % w/w
  Water Content by cKF TM-22-0012, Prep 1 and 2: 1.2 % w/w and 1.3 % w/w
[1]; 12 Months, all impurities
  Impurities TM-22-0392 (individual impurities): All < 0.05%
[1]; Initial
  Total Impurities: 0.08%
  Water Content by cKF TM-22-0012, Mean (2): 1.2 % w/w
[1]; Initial, impurity at RRT 1.12
  Impurities TM-22-0392 (individual impurities): RRT 1.12/0.08%
[1]; Initial, specification 90.0-110.0%
  Assay TM-22-0392 (% Label Claim): 98.8%
[1]; Initial, specification NMT 10.0%
  Water Content by cKF TM-22-0012, Prep 1 and 2: 1.1 % w/w and 1.2 % w/w
[1]; Initial, specification white to light brown powder partially filling white opaque capsules
  Appearance POL-0018, Product: Conforms
Swiss Albino Mice; [5]
  Functional observation battery: No treatment related effects were observed
  Mortality and morbidity check: No mortality or morbidity was observed at any dose level
Swiss Albino Mice; 28 consecutive days, both sexes
  effects on general health, body weight, feed consumption, clinical pathology, gross pathology and histopathology: no psilocin mucate related effects
Swiss Albino Mice; G1 and G4 main group organs/tissues
  Histopathology, overall: no psilocin mucate related histopathological changes
Swiss Albino Mice; G4 female, considered toxicologically irrelevant
  histopathological lesions (background findings): single incidence of cortical cyst (unilateral) in kidneys; also recorded: presence of luteal cyst (unilateral) in ovaries
Swiss Albino Mice; G4 male and G3 female animals vs vehicle control, considered non-psilocin mucate related
  AChE: statistically significant increase
Swiss Albino Mice; G4 males (20 mg/kg bw/day), day 1-8, vs control, not considered adverse
  body weight gain: statistically significant decrease
Swiss Albino Mice; G4 recovery females vs control, not due to treatment
  net body weight gain (day 1 to day 43): statistically significant increase
Swiss Albino Mice; G4 recovery group females (20 mg/kg bw/day), last day of recovery, vs control, considered random biological variation
  foot splay measurement: statistically significant increase
Swiss Albino Mice; all groups, both sexes
  Gross pathology: No gross changes were observed
Swiss Albino Mice; both sexes
  Clinical chemistry parameters, overall: No psilocin mucate related changes were observed
  Hematology parameters, overall: No psilocin mucate related changes were observed
Swiss Albino Mice; both sexes, main and recovery group
  Coagulation parameters: No statistically significant changes were observed
Swiss Albino Mice; females G3 and G4 vs G1, considered not related
  total bile acids: statistically significant increase
Swiss Albino Mice; [6]
  aspartate aminotransferase and inorganic phosphorous: decrease
  creatinine, total protein, albumin and calcium: increase
  mean corpuscular hemoglobin: increase
  relative adrenals and brain weight: decrease
Swiss Albino Mice; females G4 vs G1, considered not related
  absolute and relative thymus weight: statistically significant increase
Swiss Albino Mice; females G4 vs vehicle control, considered not related
  white blood cells and platelets: statistically significant increase
Swiss Albino Mice; main and recovery group animals
  Ophthalmological examination: No ocular abnormalities were observed
Swiss Albino Mice; males G2 and G4 vs vehicle control G1, considered not related
  relative eosinophil count: statistically significant decrease
Swiss Albino Mice; males G3 vs G1, considered not related
  chloride: decrease
Swiss Albino Mice; [7]
  absolute and relative lungs weight and absolute prostate with seminal vesicles and coagulating gland weight: statistically significant decrease
  red blood cells and hemoglobin: statistically significant increase
  reticulocytes: decrease
Swiss Albino Mice; males G4 vs vehicle control, considered not related
  inorganic phosphorous: statistically significant increase
Swiss Albino Mice; males, G4 recovery group, day 29-36, vs control, considered incidental
  feed consumption: statistically significant increase
Swiss Albino Mice; mouse, in vivo
  Acetyl cholinesterase (AChE) level, overall: No psilocin mucate related changes were observed
  NOAEL translated to a dose for an average person of 70 kg: 1,400 mg
  Urinalysis parameters, overall: No psilocin mucate related changes were observed
Swiss Albino Mice; oral gavage, 28 consecutive days
  NOAEL: 20 mg/kg bw/day
Swiss Albino Mice; recovery female group (G4R) vs vehicle control recovery group, considered not related
  urine pH: statistically significant decrease
Swiss Albino Mice; treatment and recovery period
  Clinical signs and detailed clinical signs observation: No clinical signs of toxicity were observed
Healthy subjects; individual subjects 01-10, single oral capsule, 2 mg psilocin equivalent, assessed by psychiatrist
  FEELING STATUS: Feel little beet happier, better; also recorded: Feel calm, less thoughts, happier; also recorded: Euphoric, better mood, it helps with; also recorded: Euphories, better mood, sleepy, feel; also recorded: Sleepy, better thoughts, less worried; also recorded: Did not feel change in mood but feeling; also recorded: More relaxed, want to drink sweet; also recorded: Better mood, feels hyper sexual; also recorded: Felt high mood, now they feel in good; also recorded: Less anxious, better mood, increase
Healthy subjects; individual subjects 01-10, single oral capsule, 2 mg psilocin equivalent, hallucinogenic substance expected to lower score below 25
  MMSE: 30 (3×) and 28 (3×) and 27 (2×) and 29 (2×)
Healthy subjects; [8]
  adverse events: dizziness: one subject reported slight and transient dizziness
  serious adverse effects: no serious adverse effects were reported
  subjects with no hallucinogenic effect: 9 of the 10
[2]; from comparison with published psilocybin studies
  food effect upon oral administration: no food effect
[2]; oral
  Cmax as compared to an equal amount of psilocin generated by the metabolism of psilocybin: higher Cmax
  decrease in Tmax as compared to an equivalent formulation of psilocybin: ≥ 2 fold
[2]; oral formulation
  delivered concentrations of psilocin compared with intravenous psilocybin: equivalent to intravenous doses of psilocybin
  patient-to-patient variability as compared to psilocybin treatment: decreased patient-to-patient variability
[2]; [9]
  AUC: 11.189 μG H/L
  Tmax: 0.75 h
[2]; plasma psilocin, 2 mg p.o. PM fasted, psilocin dose 2 mg, 0.026 mg/kg p.o.
  Cmax: 3.66 ng/mL
[2]; single oral capsule, 2 mg psilocin equivalent
  time until psilocin is essentially eliminated from circulation: less than 12 hours

## CN(C)CCc1c[nH]c2cccc(OP(=O)(O)O)c12 [psilocybin]
[3]; [10]
  AUC: 32.71 μG H/L
  Tmax: 1.75 h
[3]; 0.224 mg/kg p.o. PY fasted by Hasler, psilocin dose 0.161 mg/kg p.o.
  Cmax: 8.2 ng/mL
[3]; 1 mg i.v. PY by Hasler
  AUC: 4 μG H/L
  Tmax: 0.0317 h
[3]; 1 mg i.v. PY by Hasler, psilocin dose 0.718 mg, 0.01 mg/kg i.v.
  Cmax: 12.9 ng/mL
[3]; 25 mg p.o. PY fasted by Holze
  AUC: 83 μG H/L
  Tmax: 1.9 h
[3]; 25 mg p.o. PY fasted by Holze, psilocin dose 17.95 mg, 0.256 mg/kg
  Cmax: 17 ng/mL
[3]; varies from paper to paper
  bioavailability, generally reported: 50-80%
[4]
  lethal dose 50% (LD50): 285 mg/kg
